“And” between values parts separate entries of the source, which are not always exact repeats. Equal values may be shown once. “Also recorded” adds a separate entry of the source.
How the values were obtained:
[1] = biological target: T1, cloned human 5-HT6 receptors (Homo sapiens, UniProt P50406); assay: receptor-binding assay, 5-HT6 (3H-LSD, HEK 293 cells); conditions: for Ki: 3H-LSD 2.7 nM, HEK 293 cells
T1 construct: expressed in transfected cells
Experimental: (§1) In the receptor-binding assays, brain tissues from male Wistar rats weighing 120-200 g or cloned human 5-HT6 or D4 receptors were used. The protein contents of the membrane preparates were determined according to Lowry (Lowry O. H., Rosenbrough N. J., Farr A. L., Randall R. J., Protein measurement with the Folin-Phenol reagents. J Biol Chem, 193: 265-275 (1951).
(§2) The basic information with regard the receptor-binding assay is disclosed in Table 1. The binding assays were carried out according to the method of Leysen (Leysen J. E, Niemegeers C. J. E, Van Nueten J. M., Laduron P. M.: ^[3H]Ketanserin (R41468), a selective ^[3H]ligand for Serotonine2 receptor binding. Mol Pharmacol, 21: 301-314 (1981)). The tested compound was deemed to be effective in the case when the Ki value was smaller than 100 nM.

5-HT2A receptors = biological target: T2, 5-HT2A receptors (Rattus norvegicus, UniProt P14842); assay: receptor-binding assay, 5-HT2A (3H-ketanserine, frontal cortex); conditions: for Ki: 3H-ketanserine 1.0 nM, frontal cortex
T2 construct: brain tissues from male Wistar rats weighing 120-200 g; from tissue
T2 sequence (P14842 whole entry): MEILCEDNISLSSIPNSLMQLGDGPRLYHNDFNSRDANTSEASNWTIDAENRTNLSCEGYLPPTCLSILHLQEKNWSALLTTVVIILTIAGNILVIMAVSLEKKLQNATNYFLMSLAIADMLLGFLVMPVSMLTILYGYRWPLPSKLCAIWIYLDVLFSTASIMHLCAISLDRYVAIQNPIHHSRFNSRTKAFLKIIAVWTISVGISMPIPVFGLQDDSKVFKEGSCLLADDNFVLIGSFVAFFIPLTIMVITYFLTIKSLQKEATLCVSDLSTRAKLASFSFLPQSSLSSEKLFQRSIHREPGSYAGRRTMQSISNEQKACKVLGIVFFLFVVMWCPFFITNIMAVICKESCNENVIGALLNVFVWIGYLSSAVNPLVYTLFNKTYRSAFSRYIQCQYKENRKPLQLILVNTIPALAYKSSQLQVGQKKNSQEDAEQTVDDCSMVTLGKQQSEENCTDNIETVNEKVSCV
Description: In the receptor-binding assays, brain tissues from male Wistar rats weighing 120-200 g or cloned human 5-HT6 or D4 receptors were used.
The basic information with regard the receptor-binding assay is disclosed in Table 1.

[2] = biological target: T3, cloned human D4 receptors (Homo sapiens, UniProt P21917); assay: receptor-binding assay, D4 (3H-YM-09151-2, SF9 cells); conditions: for Ki: 3H-YM-09151-2 0.28 nM, SF9 cells
T3 construct: expressed in transfected cells
T3 sequence (P21917 1-419): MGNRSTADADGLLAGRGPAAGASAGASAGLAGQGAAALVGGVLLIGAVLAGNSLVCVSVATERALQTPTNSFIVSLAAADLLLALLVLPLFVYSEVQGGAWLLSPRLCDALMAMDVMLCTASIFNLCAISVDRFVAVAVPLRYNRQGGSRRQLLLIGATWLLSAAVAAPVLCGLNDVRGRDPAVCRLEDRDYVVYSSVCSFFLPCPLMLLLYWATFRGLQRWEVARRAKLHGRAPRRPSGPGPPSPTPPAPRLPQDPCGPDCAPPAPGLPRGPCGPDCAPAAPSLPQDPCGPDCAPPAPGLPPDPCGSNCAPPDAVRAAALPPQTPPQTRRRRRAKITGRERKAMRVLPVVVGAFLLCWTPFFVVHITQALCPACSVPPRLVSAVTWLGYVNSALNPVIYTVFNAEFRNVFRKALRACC
Experimental: as §1, §2

male Wistar rats = assay: Vogel's drinking conflict model (anxiolytic effect); type: in vivo, rat; conditions: ip., 30 minutes before the test, MED = minimum dose resulting in statistically significant effect
Experimental: Vogel's drinking conflict model was used for establishing the anxiolytic effect (Vogel at el., Psychopharmacologia, 21, 1, 1971). Male Wistar rats weighing 200 to 220 grams were restrained from drinking for 48 hours and deprived from feed for 24 hours prior to the experiment. The test substances or the vehicle were administered to the animals in a dose of 5.0-10.0-20.0 mg/kg intraperitoneally 30 minutes before the test. The test chamber was provided with a drinking tube which allowed the animals to drink. However, after each twentieth licking, the apparatus delivered a 0.7 mA electric shock to the animal. During the five-minute measurement period, the number of electric shocks was registered which the animals tolerated to appease their thirst. The effect of the test substance was expressed in the percentage increase in the number of tolerated electric shocks. The minimum effective dose (MED) was determined for each compound.

male DBA mice = assay: Porsolt's test (antidepressant effect); type: in vivo, mouse; conditions: for Porsolt-test (model for antidepressant effect), MED: ip., 30 minutes before the test, p<0.05
Experimental: The antidepressant effect of the compounds of the Formula (I) has been established in Porsolt's test in male DBA mice weighing 20 to 25 grams. The swimming experiment was carried out in cylinders of 17.7 cm height and 12 cm diameter (Porsolt, R. D.: Behavioral despair. In: Enna, S. J., Malick, J. B., and Richelson, E. (eds.): “Antidepressants: Neurochemical, Behavioral, and Clinical Prespectives.” New York: Raven Press, 1981. pp. 121-139). In each experiment, four cylinders were used simultaneously. The animals were treated 30 minutes before the test with the test substances or with the vehicle in the dose of 1-3-10 mg/kg i.p. Animals were allowed to stay in the cylinder for six minutes. In the first two minutes, no measurement was made since this period was considered as the adaptation period. In the following four minutes (minutes 3 to 6 of the experiment) the time spent in immobile state was determined. The immobile time was registered for each animal with a precision of one second. The average was calculated for each group and the percentage effect was calculated for each treated group with reference for the control group. The statistical significance of the differences between groups was analyzed by […].
On the basis of the statistical significance determined for the difference of each dose from the control, MED (minimum effective dose) values were calculated. […] A significant decrease of time spent in immobility was interpreted as an antidepressant effect.

male NMRI mice = assay: permanent focal cerebral ischemia model (neuroprotective effect); type: in vivo, mouse; conditions: ip., 30 minutes after surgery
Experimental: The neuroprotective effect of the compounds of the Formula (I) was tested in the permanent focal cerebral ischemia model according to the modified method of Karkoutly and coworkers (Karkoutly, C., Backhauss, C., Nuglisch, J., Krieglstein, J.: The measurement of the infarcted area after middle cerebral artery occlusion in the mouse: a screening model. In Krieglstein, J., Oberpichler, H. ed. Pharmacology of Cerebral Ischemia 1990. Wissenschaftliche Verlagsgesellschaft mbH Stuttgart. 63-69 (1990).).
Male NMRI mice weighing 30 to 35 grams were anesthetized with 2,2,2-tribromoethanol administered intraperitoneally in the dose of 500 mg/kg (20 ml/kg). During anesthesia, surgery was performed according to the surgical protocol of Welsh and coworkers (Welsh, F. A., Sakamoto, T., McKee, A., Sims, R. E.: Effect of lactacidosis on pyridine nucleotide stability during ischemia in mouse. J. Neurochem. 49: 846-851 (1987)). The distal part of the middle […] artery (MCA) was occluded with electric cauter. Test compounds were administered intraperitoneally 30 minutes after surgery in the dose of 0.1-0.3-1.0-3.0-10.0 mg/kg). After 48 hours, mice were anesthetised by 120 mg/kg sodium pentobarbital intraperitoneally. The brains were perfused through the left ventricle with 2 ml of 4% 2,3,5-triphenyl-tetrazolium-chloride (TTC) solution. After one hour, the brains was removed and placed into ice-cool saline for one to two minutes. Subsequently the brains were placed into 8% aqueous formaldehyde solution. After 24 hours, the area of white lesions was determined by a computerized image analysis software. The statistical evaluation was performed by variance analysis followed by Duncan-test.

T1 sequence (P50406 whole entry): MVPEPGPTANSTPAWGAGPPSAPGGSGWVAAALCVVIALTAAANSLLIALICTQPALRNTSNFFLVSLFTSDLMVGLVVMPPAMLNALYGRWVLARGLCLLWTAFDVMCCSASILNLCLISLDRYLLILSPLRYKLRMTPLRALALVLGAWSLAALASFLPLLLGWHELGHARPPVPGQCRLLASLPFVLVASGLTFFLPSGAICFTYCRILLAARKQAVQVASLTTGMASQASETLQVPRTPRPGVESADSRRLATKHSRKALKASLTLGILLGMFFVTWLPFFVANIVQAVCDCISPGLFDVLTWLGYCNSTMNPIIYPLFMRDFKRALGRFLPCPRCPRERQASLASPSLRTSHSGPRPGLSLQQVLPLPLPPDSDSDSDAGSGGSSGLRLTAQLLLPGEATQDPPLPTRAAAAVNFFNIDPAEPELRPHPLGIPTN

Structure (SMILES)	affinity towards central 5-HT6 receptors (in words) [1]	Ki [1] [nM]	Ki (5-HT2A receptors) [nM]	Ki [2] [nM]	Vogel-test (model for anxiolytic effect), MED (male Wistar rats)	Porsolt-test (model for antidepressant effect), MED (male DBA mice)	Permanent cerebral ischemia model (model for neuroprotective effect), MED (male NMRI mice)	melting point [°C]	affinity to the central 5-HT2A receptors (in words) (5-HT2A receptors)	affinity to the central D4 receptors (in words) [2]	Vogel-test (model for anxiolytic effect), MED (male Wistar rats; listed as (−)-5,7-dichloro-3-{4-[4-(4-chlorophenyl)-piperazin-1-yl]butyl}-3-ethyl-1,3-dihy)	antidepressant activity in Porsolt's test (in words) (male DBA mice; mice)
CCC1(CCCCN2CCN(c3ccc(Cl)cc3)CC2)C(=O)Nc2c(Cl)cc(Cl)cc21 (single isomer, unassigned; (+)) [(+)-enantiomer of the Formula (I), (+)-5,7-dichloro-3-{4-[4-(4-chlorophenyl)-piperazin-1-yl]butyl}-3-ethyl-1,3-dihydro-2H-indol-2-one]	significant affinity	11	> 200	35	10 mg/kg	No effect	ineffective; also recorded: No effect	139 to 141				
CCC1(CCCCN2CCN(c3ccc(Cl)cc3)CC2)C(=O)Nc2c(Cl)cc(Cl)cc21 (single isomer, unassigned; (-)) [(−)-enantiomer of the Formula (I), (−)-5,7-dichloro-3-{4-[4-(4-chlorophenyl)-piperazin-1-yl]-butyl}-3-ethyl-1,3-dihydro-2H-indol-2-one]	not bound		42	13	No effect	No effect	3 mg/kg and 3.0 mg/kg	139 to 140	affinity greater by several orders of magnitude	significant affinity	did not show any anxiolytic effect	
CCC1(CCCCN2CCN(c3ccc(Cl)cc3)CC2)C(=O)Nc2c(Cl)cc(Cl)cc21 (racemic) [Compound of the Formula (II), 5,7-dichloro-3-{4-[4-(4-chlorophenyl)-piperazin-1-yl]butyl}-3-ethyl-1,3-dihydro-2H-indol-2-one]	significant affinity	9	50	> 100	5 mg/kg	3 mg/kg	0.1 mg/kg	152 to 154	affinity greater by several orders of magnitude	did not show any significant binding		significant, dose-dependent antidepressant activity
